Measured values: PubChem BioAssay AID1259407 (Chemical Carcinogenesis Research Information System (CCRIS), 2018)
The source made the active and inactive calls. How the calls were made is not given here.

Tested on: CCRIS mutagenicity, Ames/micronucleus/aberration tests
Assay: CCRIS mutagenicity studies
[1] = Test System: AMES SALMONELLA TYPHIMURIUM, Strain/Indicator: TA98, Metabolic Activation: NONE, Method: PREINCUBATION
[2] = Test System: AMES SALMONELLA TYPHIMURIUM, Strain/Indicator: TA98, Metabolic Activation: RAT, LIVER, S-9, AROCLOR 1254, Method: STANDARD PLATE
[3] = Test System: AMES SALMONELLA TYPHIMURIUM, Strain/Indicator: TA100, Metabolic Activation: NONE, Method: PREINCUBATION
[4] = Test System: AMES SALMONELLA TYPHIMURIUM, Strain/Indicator: TA100, Metabolic Activation: NONE, Method: STANDARD PLATE
[5] = Test System: AMES SALMONELLA TYPHIMURIUM, Strain/Indicator: TA100, Metabolic Activation: RAT, LIVER, S-9, AROCLOR 1254, Method: STANDARD PLATE
[6] = Test System: AMES SALMONELLA TYPHIMURIUM, Strain/Indicator: TA1535, Metabolic Activation: NONE, Method: PREINCUBATION
[7] = Test System: AMES SALMONELLA TYPHIMURIUM, Strain/Indicator: TA1535, Metabolic Activation: NONE, Method: STANDARD PLATE
[8] = Test System: AMES SALMONELLA TYPHIMURIUM, Strain/Indicator: TA1535, Metabolic Activation: RAT, LIVER, S-9, AROCLOR 1254, Method: STANDARD PLATE
[9] = Test System: AMES SALMONELLA TYPHIMURIUM, Strain/Indicator: TA1537, Metabolic Activation: NONE, Method: PREINCUBATION
[10] = Test System: AMES SALMONELLA TYPHIMURIUM, Strain/Indicator: TA1537, Metabolic Activation: NONE, Method: STANDARD PLATE
[11] = Test System: AMES SALMONELLA TYPHIMURIUM, Strain/Indicator: TA1537, Metabolic Activation: RAT, LIVER, S-9, AROCLOR 1254, Method: STANDARD PLATE
[12] = Test System: AMES SALMONELLA TYPHIMURIUM, Strain/Indicator: TA1538, Metabolic Activation: NONE, Method: STANDARD PLATE
[13] = Test System: AMES SALMONELLA TYPHIMURIUM, Strain/Indicator: TA1538, Metabolic Activation: RAT, LIVER, S-9, AROCLOR 1254, Method: STANDARD PLATE
[14] = Test System: AMES SALMONELLA TYPHIMURIUM, Strain/Indicator: TA98, Metabolic Activation: NONE, Method: STANDARD PLATE

SMILES	mutagenic call [1]	mutagenic call [2]	mutagenic call [3]	mutagenic call [4]	mutagenic call [5]	mutagenic call [6]	mutagenic call [7]	mutagenic call [8]	mutagenic call [9]	mutagenic call [10]	mutagenic call [11]	mutagenic call [12]	mutagenic call [13]	mutagenic call [14]	other results
O=C1c2ccccc2C(=O)c2c(O)ccc(O)c21	inactive; negative	inactive; negative	inactive; negative	inactive; negative	inactive; negative	inactive; negative	inactive; negative	inactive; negative	active; positive	active; positive	active; positive	inactive; negative	inactive; negative	–	mutagenic call (End Point: IN VITRO CHROMOSOMAL ABERRATIONS, Test System: CHL CELLS, Metabolic Activation: NONE): active; positive (structural changes); authors report equivocal results for ploidy chang; mutagenic call (Test System: AMES SALMONELLA TYPHIMURIUM, Strain/Indicator: TA98, Metabolic Activation: RAT LIVER S-9, PHENOBARBITAL AND BETA-NAPHTHOFLAVONE, Method: PREINCUBATION): inactive; negative; mutagenic call (Test System: AMES SALMONELLA TYPHIMURIUM, Strain/Indicator: TA98, Metabolic Activation: RAT, LIVER, S-9, PCB, Method: PREINCUBATION): inactive; negative; mutagenic call (Test System: AMES SALMONELLA TYPHIMURIUM, Strain/Indicator: TA100, Metabolic Activation: RAT LIVER S-9, PHENOBARBITAL AND BETA-NAPHTHOFLAVONE, Method: PREINCUBATION): inactive; negative; mutagenic call (Test System: AMES SALMONELLA TYPHIMURIUM, Strain/Indicator: TA100, Metabolic Activation: RAT, LIVER, S-9, PCB, Method: PREINCUBATION): inactive; negative; mutagenic call (Test System: AMES SALMONELLA TYPHIMURIUM, Strain/Indicator: TA102, Metabolic Activation: NONE, Method: PREINCUBATION): active; positive; mutagenic call (Test System: AMES SALMONELLA TYPHIMURIUM, Strain/Indicator: TA102, Metabolic Activation: RAT, LIVER, S-9, Method: PREINCUBATION): active; positive; mutagenic call (Test System: AMES SALMONELLA TYPHIMURIUM, Strain/Indicator: TA1535, Metabolic Activation: RAT LIVER S-9, PHENOBARBITAL AND BETA-NAPHTHOFLAVONE, Method: PREINCUBATION): inactive; negative; mutagenic call (Test System: AMES SALMONELLA TYPHIMURIUM, Strain/Indicator: TA1537, Metabolic Activation: RAT LIVER S-9, PHENOBARBITAL AND BETA-NAPHTHOFLAVONE, Method: PREINCUBATION): active; positive; mutagenic call (Test System: E.COLI, Strain/Indicator: WP2UVRA, Metabolic Activation: NONE, Method: PREINCUBATION): inactive; negative; mutagenic call (Test System: E.COLI, Strain/Indicator: WP2UVRA, Metabolic Activation: RAT LIVER S-9, PHENOBARBITAL AND BETA-NAPHTHOFLAVONE, Method: PREINCUBATION): inactive; negative
CCCCNC(=O)C=Cc1ccc([N+](=O)[O-])o1	active; positive	–	–	–	–	–	–	–	–	–	–	–	–	–	–
O=[N+]([O-])c1cc2[nH]c3ccc4ccccc4c3c2c2ccc(O)cc12	–	–	–	active; positive	–	–	–	–	–	–	–	–	–	inactive; negative	mutagenic call (Test System: AMES SALMONELLA TYPHIMURIUM, Strain/Indicator: TA98, Metabolic Activation: RAT, LIVER, S-9, 3-METHYLCHOLANTHRENE, Method: STANDARD PLATE): active; positive; mutagenic call (Test System: AMES SALMONELLA TYPHIMURIUM, Strain/Indicator: TA100, Metabolic Activation: RAT, LIVER, S-9, 3-METHYLCHOLANTHRENE, Method: STANDARD PLATE): active; positive
CCCCOc1ccc(C=Nc2ccc(CC)cc2)cc1	inactive; negative	–	inactive; negative	–	–	inactive; negative	–	–	inactive; negative	–	–	–	–	–	mutagenic call (Test System: AMES SALMONELLA TYPHIMURIUM, Strain/Indicator: TA97, Metabolic Activation: HAMSTER, LIVER, S-9, AROCLOR 1254 (30%), Method: PREINCUBATION): inactive; negative; mutagenic call (Test System: AMES SALMONELLA TYPHIMURIUM, Strain/Indicator: TA97, Metabolic Activation: NONE, Method: PREINCUBATION): inactive; negative; mutagenic call (Test System: AMES SALMONELLA TYPHIMURIUM, Strain/Indicator: TA97, Metabolic Activation: RAT, LIVER, S-9, AROCLOR 1254 (30%), Method: PREINCUBATION): inactive; negative; mutagenic call (Test System: AMES SALMONELLA TYPHIMURIUM, Strain/Indicator: TA98, Metabolic Activation: HAMSTER, LIVER, S-9, AROCLOR 1254 (30%), Method: PREINCUBATION): inactive; negative; mutagenic call (Test System: AMES SALMONELLA TYPHIMURIUM, Strain/Indicator: TA98, Metabolic Activation: RAT, LIVER, S-9, AROCLOR 1254 (30%), Method: PREINCUBATION): inactive; negative; mutagenic call (Test System: AMES SALMONELLA TYPHIMURIUM, Strain/Indicator: TA100, Metabolic Activation: HAMSTER, LIVER, S-9, AROCLOR 1254 (10%), Method: PREINCUBATION): inactive; negative; mutagenic call (Test System: AMES SALMONELLA TYPHIMURIUM, Strain/Indicator: TA100, Metabolic Activation: RAT, LIVER, S-9, AROCLOR 1254 (30%), Method: PREINCUBATION): inactive; negative; mutagenic call (Test System: AMES SALMONELLA TYPHIMURIUM, Strain/Indicator: TA1535, Metabolic Activation: HAMSTER, LIVER, S-9, AROCLOR 1254 (10%), Method: PREINCUBATION): inactive; negative; mutagenic call (Test System: AMES SALMONELLA TYPHIMURIUM, Strain/Indicator: TA1535, Metabolic Activation: HAMSTER, LIVER, S-9, AROCLOR 1254 (30%), Method: PREINCUBATION): inactive; negative; mutagenic call (Test System: AMES SALMONELLA TYPHIMURIUM, Strain/Indicator: TA1535, Metabolic Activation: RAT, LIVER, S-9, AROCLOR 1254 (30%), Method: PREINCUBATION): inactive; negative; mutagenic call (Test System: AMES SALMONELLA TYPHIMURIUM, Strain/Indicator: TA1537, Metabolic Activation: HAMSTER, LIVER, S-9, AROCLOR 1254 (30%), Method: PREINCUBATION): inactive; negative; mutagenic call (Test System: AMES SALMONELLA TYPHIMURIUM, Strain/Indicator: TA1537, Metabolic Activation: RAT, LIVER, S-9, AROCLOR 1254 (30%), Method: PREINCUBATION): inactive; negative
CCOCCc1c(-c2ccccc2)nc(N)n2ncnc12	–	inactive; negative	–	inactive; negative	inactive; negative	–	inactive; negative	inactive; negative	–	inactive; negative	inactive; negative	inactive; negative	inactive; negative	inactive; negative	mutagenic call (Test System: CHINESE HAMSTER OVARY, Strain/Indicator: CHO-K1-BH4 (HGPRT)/6-THIOGUANINE, Metabolic Activation: NONE): inactive; negative; mutagenic call (Test System: CHINESE HAMSTER OVARY, Strain/Indicator: CHO-K1-BH4 (HGPRT)/6-THIOGUANINE, Metabolic Activation: RAT, LIVER, S-9, AROCLOR 1254): inactive; negative; mutagenic call (Test System: MOUSE LYMPHOMA, Strain/Indicator: L5178Y (TK+/TK-), Metabolic Activation: NONE, Method: SUSPENSION/PLATE): inactive; negative; mutagenic call (Test System: MOUSE LYMPHOMA, Strain/Indicator: L5178Y (TK+/TK-), Metabolic Activation: RAT, LIVER, S-9, AROCLOR 1254, Method: SUSPENSION/PLATE): inactive; negative; mutagenic call (Test System: UDS RAT PRIMARY HEPATOCYTES, Strain/Indicator: THY INCORP, Metabolic Activation: NONE, Method: AUTORADIOGRAPHY): inactive; negative
CCN[C@@H](C)C[C@H](C)NCC.[Cl-].[Cl-].[Pt+2]	–	–	–	active; positive	–	–	–	–	–	–	–	–	–	–	mutagenic call (Test System: AMES SALMONELLA TYPHIMURIUM, Strain/Indicator: TA97A, Metabolic Activation: NONE, Method: STANDARD PLATE): active; positive
